A word on the IC50: it is the concentration that gives 50% inhibition. Low values mean higher potency, high ones lower potency.

For one test, the target named is dopamine D2 receptor (Homo sapiens, UniProt P14416). The experiment in a line: Binding affinity to cloned human dopamine receptors (radioligand displacement), D2. Conditions: for Affinity to Dopamine Receptors (% Inhibition) D2: 1 µM test compound. Here is the method: (§1) Experimental Example: Test for the Binding Affinity to Dopamine Receptor
Chain of dopamine D2 receptor (P14416 whole entry): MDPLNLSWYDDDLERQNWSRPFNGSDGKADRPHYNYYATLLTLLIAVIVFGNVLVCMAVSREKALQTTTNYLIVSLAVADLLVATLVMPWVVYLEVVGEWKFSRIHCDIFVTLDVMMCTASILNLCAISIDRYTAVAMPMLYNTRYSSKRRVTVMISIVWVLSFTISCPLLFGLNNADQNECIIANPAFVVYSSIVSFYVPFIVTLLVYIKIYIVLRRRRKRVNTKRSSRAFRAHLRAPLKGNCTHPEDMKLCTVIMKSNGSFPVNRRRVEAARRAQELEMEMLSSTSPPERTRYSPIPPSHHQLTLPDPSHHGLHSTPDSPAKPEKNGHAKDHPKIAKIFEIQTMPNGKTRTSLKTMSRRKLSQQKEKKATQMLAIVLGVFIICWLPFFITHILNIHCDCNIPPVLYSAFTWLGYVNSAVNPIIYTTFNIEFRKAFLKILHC
(§2) Binding affinities of the compounds for dopamine receptors were determined indirectly by their ability to displace radiolabeled ligand from cloned human dopamine receptors. Compounds were incubated in receptor suspension to compete with the radiolabeled ligand. The receptor-bound radiolabeled ligand was separated by filtering through Wallac glass fiber filtermat (GF/C) using Inotech cell harvester of 96-well format. The radioactivity bound to filter was counted by Micro-P counter (Wallac).
(§3) The aliquots of cloned human dopamine receptors stored at −70° C. were suspended in assay buffer and the content of receptor in each aliquot was determined by Bio-Rad DC protein assay kit to give an optimal protein (receptor) concentration obtained by preliminary receptor binding assay. Receptor suspension adjusted to optimal concentration was aliquoted in proper volume for assay and stored at −70° C. Binding assays of every compound were performed in duplicate and each different buffer solution was used for optimal assay with each subtype of dopamine receptors. Receptor binding assays were carried out in 96-well plates. Receptor suspension of 100 was incubated at 27° C. for 30-60 min in a final volume of 0.25 ml reaction mixture containing 50 of hot-ligand and 10 of test compound.
(§4) After incubation, the reaction mixture was washed with ice-cold 50 mM Tris-acetate buffer by rapid filtration using a Inotech cell harvester (Inotech, Switzerland) through Whatman GF/C glass fiber filter presoaked in the assay buffer. The filter was covered with MeltiLex, sealed in a sample bag followed by drying in the microwave, and counted by MicroBeta Plus (Wallac, Finland) at a counting efficiency of 30-40%.
For orientation: Displacement assays read how much labelled ligand stays bound in the presence of the test substance.

In a further test the target is dopamine D1 receptor (Homo sapiens, UniProt P21728). The experiment in a line: Binding affinity to cloned human dopamine receptors (radioligand displacement), D1. Conditions: for Affinity to Dopamine Receptors (% Inhibition) D1: 1 µM test compound. As to the method:
as §1, §2, §3, §4

A further test concerns the target T1, dopamine D4 receptor (Homo sapiens, UniProt P21917).
T1 sequence (P21917 1-419): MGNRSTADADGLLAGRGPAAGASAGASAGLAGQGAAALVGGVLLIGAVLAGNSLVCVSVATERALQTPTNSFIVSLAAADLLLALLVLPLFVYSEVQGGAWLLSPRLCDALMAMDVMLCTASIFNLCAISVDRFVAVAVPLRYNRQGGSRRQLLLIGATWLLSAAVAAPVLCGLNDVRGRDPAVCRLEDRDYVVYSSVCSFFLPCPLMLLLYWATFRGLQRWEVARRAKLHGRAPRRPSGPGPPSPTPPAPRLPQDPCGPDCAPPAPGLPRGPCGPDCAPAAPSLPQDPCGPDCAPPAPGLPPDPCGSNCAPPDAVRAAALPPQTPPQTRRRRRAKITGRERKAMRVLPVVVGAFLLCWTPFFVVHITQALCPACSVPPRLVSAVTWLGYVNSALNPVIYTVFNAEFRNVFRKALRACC
The experiment in a line: Binding affinity to cloned human dopamine receptors (radioligand displacement), D4. Conditions: for Affinity to Dopamine Receptors (% Inhibition) D4: 1 µM test compound. Here is the method: as §1, §2, §3, §4

A further test has as its target dopamine D3 receptor (Homo sapiens, UniProt P35462). In words: Binding affinity to cloned human dopamine receptors (radioligand displacement), D3. Conditions: for Affinity to Dopamine Receptors (% Inhibition) D3: 1 µM test compound. As to the method:
as §1, §2, §3, §4

Each structure is given as a SMILES string.

Chain of dopamine D3 receptor (P35462 whole entry): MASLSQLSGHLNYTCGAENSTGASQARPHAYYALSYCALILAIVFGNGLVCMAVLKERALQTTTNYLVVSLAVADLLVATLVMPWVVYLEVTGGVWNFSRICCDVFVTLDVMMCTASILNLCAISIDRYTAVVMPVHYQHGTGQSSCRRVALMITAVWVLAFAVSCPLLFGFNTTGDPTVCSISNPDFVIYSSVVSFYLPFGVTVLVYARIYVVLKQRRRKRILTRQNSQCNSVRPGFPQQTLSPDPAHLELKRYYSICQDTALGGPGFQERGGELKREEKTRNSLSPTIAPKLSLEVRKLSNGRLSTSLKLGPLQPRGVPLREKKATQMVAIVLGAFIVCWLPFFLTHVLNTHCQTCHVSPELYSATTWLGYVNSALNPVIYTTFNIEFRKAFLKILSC
Chain of dopamine D1 receptor (P21728 whole entry): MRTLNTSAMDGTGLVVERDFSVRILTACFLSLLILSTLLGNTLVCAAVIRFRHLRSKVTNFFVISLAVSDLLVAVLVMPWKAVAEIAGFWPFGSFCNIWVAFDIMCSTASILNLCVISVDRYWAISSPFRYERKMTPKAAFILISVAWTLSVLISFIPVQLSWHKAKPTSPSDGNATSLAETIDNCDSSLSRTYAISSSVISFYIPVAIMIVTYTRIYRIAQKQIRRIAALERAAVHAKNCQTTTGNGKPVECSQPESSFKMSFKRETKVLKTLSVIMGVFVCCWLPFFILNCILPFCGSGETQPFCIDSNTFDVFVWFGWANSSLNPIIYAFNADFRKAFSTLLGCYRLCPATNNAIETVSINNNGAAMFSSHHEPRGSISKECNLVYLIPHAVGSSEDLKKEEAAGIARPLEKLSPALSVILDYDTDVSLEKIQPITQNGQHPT

As to `COc1ccc(-c2cc(CCCN3CCN(c4ccccc4)CC3)on2)c(OC)c1` [Compound No. 32], on dopamine D2 receptor, the IC50 came out at 9980 nM and the “Affinity to Dopamine Receptors (% Inhibition) D2” value (shortened to “Affinity … (% Inhibition) D2”) was determined as 10.6%. Further, at dopamine D1 receptor, the IC50 was found to be 110 nM and the “Affinity to Dopamine Receptors (% Inhibition) D1” value (shortened to “Affinity … (% Inhibition) D1”) was found to be 70%. On dopamine D4 receptor, the IC50 came to 117 nM and the “Affinity to Dopamine Receptors (% Inhibition) D4” value (from here on “Affinity … (% Inhibition) D4”) stood at 74.9%. Besides, at dopamine D3 receptor, the IC50 stood at 38 nM and the “Affinity to Dopamine Receptors (% Inhibition) D3” value (from here on “Affinity … (% Inhibition) D3”) came out at 100.1%.
Turning to `COc1ccccc1N1CCN(CCCCc2cc(-c3ccc(F)cc3)no2)CC1` [Compound No. 37], the “Affinity … (% Inhibition) D2” value at dopamine D2 receptor is on record as 57.3%. The “Affinity … (% Inhibition) D1” value on dopamine D1 receptor stood at 52.2%. Besides, on dopamine D4 receptor, the “Affinity … (% Inhibition) D4” value turned out to be 91.3%. Further, the “Affinity … (% Inhibition) D3” value at dopamine D3 receptor is reported as 112.5%.
In the case of `COc1ccc(-c2cc(CCCCN3CCN(c4ccccc4OC)CC3)on2)cc1OC` [Compound No. 39], at dopamine D2 receptor, the IC50 came to 1900 nM and the “Affinity … (% Inhibition) D2” value was 23%. Further, on dopamine D1 receptor, the IC50 was 2880 nM and the “Affinity … (% Inhibition) D1” value was 23.9%. Also, at dopamine D4 receptor, the IC50 is 395 nM and the “Affinity … (% Inhibition) D4” value was determined as 80.1%. In addition, on dopamine D3 receptor, the IC50 was found to be 12 nM and the “Affinity … (% Inhibition) D3” value came to 105.1%.
`c1ccc(N2CCN(CCCCc3cc(-c4cccs4)no3)CC2)cc1` [Compound No. 33]: at dopamine D2 receptor, the IC50 was found to be 18800 nM and the “Affinity … (% Inhibition) D2” value came out at 6.7%. At dopamine D1 receptor, the IC50 was determined as 310 nM and the “Affinity … (% Inhibition) D1” value was 52.9%. Besides, at dopamine D4 receptor, the IC50 was found to be 180 nM and the “Affinity … (% Inhibition) D4” value turned out to be 62.4%. In addition, on dopamine D3 receptor, the IC50 was 35 nM and the “Affinity … (% Inhibition) D3” value is recorded as 104.4%.
For the compound `Fc1ccccc1N1CCN(CCCCc2cc(/C=C/c3ccccc3)no2)CC1` [Compound No. 46], on dopamine D2 receptor, the IC50 stood at 2660 nM and the “Affinity … (% Inhibition) D2” value was 15.6%. The “Affinity … (% Inhibition) D1” value at dopamine D1 receptor was determined as 75.8%. For the same compound, at dopamine D4 receptor, the IC50 was 89 nM and the “Affinity … (% Inhibition) D4” value is listed as 45.1%.
`C(=C\c1cc(CCCCN2CCN(c3ccccc3)CC2)on1)/c1ccccc1` [Compound No. 36]: the “Affinity … (% Inhibition) D2” value at dopamine D2 receptor is recorded as 22.2%. Further, the “Affinity … (% Inhibition) D1” value at dopamine D1 receptor amounted to 75.2%. Also, the “Affinity … (% Inhibition) D4” value at dopamine D4 receptor was 69%. The “Affinity … (% Inhibition) D3” value at dopamine D3 receptor is 107.9%.
Take `CCOc1ccccc1N1CCN(CCCCc2cc(-c3ccccc3)no2)CC1` [Compound No. 54]: at dopamine D2 receptor, the IC50 was found to be 1550 nM and the “Affinity … (% Inhibition) D2” value amounted to 29.9%. On dopamine D4 receptor, the IC50 was 52 nM and the “Affinity … (% Inhibition) D4” value was 77.6%. Moreover, on dopamine D3 receptor, the IC50 came to 21 nM and the “Affinity … (% Inhibition) D3” value was 101.8%.
In the case of `CCOc1ccccc1N1CCN(CCCCc2cc(-c3cccs3)no2)CC1` [Compound No. 53], at dopamine D2 receptor, the IC50 is 880 nM and the “Affinity … (% Inhibition) D2” value stood at 54.1%. On dopamine D4 receptor, the IC50 is 19 nM and the “Affinity … (% Inhibition) D4” value is listed as 93.4%.
Take `C(=C\c1cc(CCCCN2CCN(C(c3ccccc3)c3ccccc3)CC2)on1)/c1ccccc1` [Compound No. 29]: at dopamine D2 receptor, the “Affinity … (% Inhibition) D2” value was found to be 0.0%. Besides, the “Affinity … (% Inhibition) D1” value at dopamine D1 receptor worked out at 32.6%. For the same compound, the “Affinity … (% Inhibition) D4” value at dopamine D4 receptor came out at 31.6%. Further, on dopamine D3 receptor, the “Affinity … (% Inhibition) D3” value turned out to be 102.4%.
With `CCOc1ccccc1N1CCN(CCCc2cc(-c3ccc(F)cc3)no2)CC1` [Compound No. 20], on dopamine D2 receptor, the “Affinity … (% Inhibition) D2” value was 47.9%. The “Affinity … (% Inhibition) D4” value on dopamine D4 receptor was found to be 86.2%. Further, at dopamine D3 receptor, the “Affinity … (% Inhibition) D3” value amounted to 89.4%.

The values above are taken from patent US6723724B2, “Isoxazolylalkylpiperazine derivatives having selective biological activity at dopamine D3 or D4 receptor, and preparation thereof” (priority 2000, dated 2004).
